Measurements: a compilation of properties of binary mixtures (doi:10.3866/pku.whxb202001015)

Assay: xn = mol fraction of the nth substance listed
Conditions: 293.15 K, 101.3 kPa

CC(=O)[O-].Cn1cc[nH+]c1 + O
Conditions	electrical conductivity [S/m]
x2 = 0	0.326
x2 = 0.2845	2.06
x2 = 0.4277	3.44
x2 = 0.5098	4.31
x2 = 0.6959	6.95
x2 = 0.8691	9.7
x2 = 0.8823	8.7
x2 = 0.9207	5.18
x2 = 0.9425	2.9
x2 = 0.9559	1.7
x2 = 0.9677	0.849

CC(=O)[O-].Cn1cc[nH+]c1 + CCO
Conditions	electrical conductivity [S/m]
x2 = 0.0616	0.449
x2 = 0.0975	0.527
x2 = 0.2701	0.821
x2 = 0.3985	1.33
x2 = 0.4978	1.7
x2 = 0.6604	2.27
x2 = 0.7397	2.34
x2 = 0.7865	1.92
x2 = 0.8291	1.52
x2 = 0.8486	1.31
x2 = 0.9522	0.312
x2 = 0.9648	0.199
x2 = 0.9725	0.139
